Results reported in patent US8808743B2, “Benzonatate compositions and methods of use” (priority 2010, dated 2014).

Assay: Simulated buccal dissolution testing (stirred flow-thru cell, simulated saliva)
Assay type: physicochemical
Details: 8 mg dose
Text: Most USP dissolution tests use large volumes of media—defined as ‘sink conditions’; the aim is to get complete dissolution of the active ingredient. […] They are: • Small volume • Short residence time • Solids transfer • Composition • Incomplete dissolution
For buccal dissolution the volume of saliva is very small compared to that of the stomach and the residence time in the mouth is also very short, the bulk of the dosage form being swallowed within a minute. The dissolution test used here employed procedures and a buccal dissolution apparatus devised by DOW Chemical described in U.S. Pat. No. 7,470,545 B2 herein incorporated by reference to the extent not incompatible herewith.
In order for this test to give meaningful results it is necessary to use a dissolution media that simulates saliva. There is no USP recommended simulated saliva, so the composition used in these studies was based on published ranges. The composition used is shown below:
The technique uses a stirred flow-thru cell with a very short residence time. The buccal dissolution test was set up using simulated saliva, with a liquid volume in the cell of 9 ml, and a flow rate of 5.3 ml/min (2.7 ml/min thru the dip tube to waste, and 2.6 ml/min thru the filter and the in-line UV cell). UV cell path length was 1 mm. The tests were run at room temperature
Buccal dissolution studies were carried out with neat Formosa benzonatate (abbreviated below as “Benz”) and benzonatate resinates prepared from this benzonatate. Preparation of the resinates was at room temperature for 40 hours by the procedure described in Example 2.
Dissolution data were obtained at several benzonatate dosages for both the neat benzonatate and the resinates, and the data were normalized to a dosage of 8 mg. The normalized benzonatate dissolution data are given in Table VII and are plotted as a function of time in FIG. 6.

Benzonatate Conc. In Effluent (0 sec): 0 mg/L
Benzonatate Conc. In Effluent (5 sec): 0 mg/L
Benzonatate Conc. In Effluent (10 sec): 0 mg/L
Benzonatate Conc. In Effluent (15 sec): 37.3 mg/L
Cumulative Benzonatate Released (15 sec): 0.008 mg
Benzonatate Conc. In Effluent (20 sec): 192.8 mg/L
Cumulative Benzonatate Released (20 sec): 0.059 mg
Benzonatate Conc. In Effluent (25 sec): 353.0 mg/L
Cumulative Benzonatate Released (25 sec): 0.180 mg
Benzonatate Conc. In Effluent (30 sec): 473.4 mg/L
Cumulative Benzonatate Released (30 sec): 0.362 mg
Benzonatate Conc. In Effluent (35 sec): 544.2 mg/L
Cumulative Benzonatate Released (35 sec): 0.587 mg
Benzonatate Conc. In Effluent (40 sec): 574.7 mg/L
Cumulative Benzonatate Released (40 sec): 0.834 mg
Benzonatate Conc. In Effluent (45 sec): 585.5 mg/L
Cumulative Benzonatate Released (45 sec): 1.090 mg
Benzonatate Conc. In Effluent (50 sec): 573.6 mg/L
Cumulative Benzonatate Released (50 sec): 1.346 mg
Benzonatate Conc. In Effluent (55 sec): 559.0 mg/L
Cumulative Benzonatate Released (55 sec): 1.596 mg
Benzonatate Conc. In Effluent (60 sec): 541.7 mg/L
Cumulative Benzonatate Released (60 sec): 1.839 mg
Benzonatate Conc. In Effluent (65 sec): 519.6 mg/L
Cumulative Benzonatate Released (65 sec): 2.074 mg
Benzonatate Conc. In Effluent (70 sec): 498.0 mg/L
Cumulative Benzonatate Released (70 sec): 2.298 mg
Benzonatate Conc. In Effluent (75 sec): 480.4 mg/L
Cumulative Benzonatate Released (75 sec): 2.514 mg
Benzonatate Conc. In Effluent (80 sec): 460.2 mg/L
Cumulative Benzonatate Released (80 sec): 2.722 mg
Benzonatate Conc. In Effluent (85 sec): 439.9 mg/L
Cumulative Benzonatate Released (85 sec): 2.921 mg
Benzonatate Conc. In Effluent (90 sec): 421.8 mg/L
Cumulative Benzonatate Released (90 sec): 3.111 mg
Benzonatate Conc. In Effluent (95 sec): 403.2 mg/L
Cumulative Benzonatate Released (95 sec): 3.293 mg
Benzonatate Conc. In Effluent (100 sec): 387.3 mg/L
Cumulative Benzonatate Released (100 sec): 3.468 mg
Benzonatate Conc. In Effluent (105 sec): 369.4 mg/L
Cumulative Benzonatate Released (105 sec): 3.635 mg
Benzonatate Conc. In Effluent (110 sec): 353.5 mg/L
Cumulative Benzonatate Released (110 sec): 3.795 mg
Benzonatate Conc. In Effluent (115 sec): 337.8 mg/L
Cumulative Benzonatate Released (115 sec): 3.947 mg
Benzonatate Conc. In Effluent (120 sec): 323.0 mg/L
Cumulative Benzonatate Released (120 sec): 4.093 mg
Benzonatate Conc. In Effluent (125 sec): 308.9 mg/L
Cumulative Benzonatate Released (125 sec): 4.233 mg
Benzonatate Conc. In Effluent (130 sec): 294.9 mg/L
Cumulative Benzonatate Released (130 sec): 4.366 mg
Benzonatate Conc. In Effluent (135 sec): 282.2 mg/L
Cumulative Benzonatate Released (135 sec): 4.494 mg
Benzonatate Conc. In Effluent (140 sec): 269.8 mg/L
Cumulative Benzonatate Released (140 sec): 4.615 mg
Benzonatate Conc. In Effluent (145 sec): 257.6 mg/L
Cumulative Benzonatate Released (145 sec): 4.732 mg
Benzonatate Conc. In Effluent (150 sec): 246.0 mg/L
Cumulative Benzonatate Released (150 sec): 4.843 mg
Benzonatate Conc. In Effluent (155 sec): 235.2 mg/L
Cumulative Benzonatate Released (155 sec): 4.949 mg
Benzonatate Conc. In Effluent (160 sec): 224.7 mg/L
Cumulative Benzonatate Released (160 sec): 5.051 mg
Benzonatate Conc. In Effluent (165 sec): 214.7 mg/L
Cumulative Benzonatate Released (165 sec): 5.148 mg
Benzonatate Conc. In Effluent (170 sec): 205.2 mg/L
Cumulative Benzonatate Released (170 sec): 5.241 mg
Benzonatate Conc. In Effluent (175 sec): 195.8 mg/L
Cumulative Benzonatate Released (175 sec): 5.329 mg
Benzonatate Conc. In Effluent (180 sec): 187.1 mg/L
Cumulative Benzonatate Released (180 sec): 5.414 mg
Benzonatate Conc. In Effluent (185 sec): 178.8 mg/L
Cumulative Benzonatate Released (185 sec): 5.495 mg
Benzonatate Conc. In Effluent (190 sec): 170.9 mg/L
Cumulative Benzonatate Released (190 sec): 5.572 mg
Benzonatate Conc. In Effluent (195 sec): 163.1 mg/L
Cumulative Benzonatate Released (195 sec): 5.646 mg
Benzonatate Conc. In Effluent (200 sec): 155.8 mg/L
Cumulative Benzonatate Released (200 sec): 5.716 mg
Benzonatate Conc. In Effluent (205 sec): 148.8 mg/L
Cumulative Benzonatate Released (205 sec): 5.783 mg
Benzonatate Conc. In Effluent (210 sec): 142.0 mg/L
Cumulative Benzonatate Released (210 sec): 5.848 mg
Benzonatate Conc. In Effluent (215 sec): 135.6 mg/L
Cumulative Benzonatate Released (215 sec): 5.909 mg
Benzonatate Conc. In Effluent (220 sec): 129.6 mg/L
Cumulative Benzonatate Released (220 sec): 5.967 mg
Benzonatate Conc. In Effluent (225 sec): 123.7 mg/L
Cumulative Benzonatate Released (225 sec): 6.023 mg
Benzonatate Conc. In Effluent (230 sec): 118.3 mg/L
Cumulative Benzonatate Released (230 sec): 6.077 mg
Benzonatate Conc. In Effluent (235 sec): 112.9 mg/L
Cumulative Benzonatate Released (235 sec): 6.128 mg
Benzonatate Conc. In Effluent (240 sec): 107.8 mg/L
Cumulative Benzonatate Released (240 sec): 6.177 mg
Benzonatate Conc. In Effluent (245 sec): 102.9 mg/L
Cumulative Benzonatate Released (245 sec): 6.223 mg
Benzonatate Conc. In Effluent (250 sec): 98.3 mg/L
Cumulative Benzonatate Released (250 sec): 6.268 mg
Benzonatate Conc. In Effluent (255 sec): 93.7 mg/L
Cumulative Benzonatate Released (255 sec): 6.310 mg
Benzonatate Conc. In Effluent (260 sec): 89.7 mg/L
Cumulative Benzonatate Released (260 sec): 6.350 mg
Benzonatate Conc. In Effluent (265 sec): 85.6 mg/L
Cumulative Benzonatate Released (265 sec): 6.389 mg
Benzonatate Conc. In Effluent (270 sec): 81.8 mg/L
Cumulative Benzonatate Released (270 sec): 6.426 mg
Benzonatate Conc. In Effluent (275 sec): 78.0 mg/L
Cumulative Benzonatate Released (275 sec): 6.461 mg
Benzonatate Conc. In Effluent (280 sec): 74.5 mg/L
Cumulative Benzonatate Released (280 sec): 6.495 mg
Benzonatate Conc. In Effluent (285 sec): 71.3 mg/L
Cumulative Benzonatate Released (285 sec): 6.527 mg
Benzonatate Conc. In Effluent (290 sec): 68.1 mg/L
Cumulative Benzonatate Released (290 sec): 6.558 mg
Benzonatate Conc. In Effluent (295 sec): 64.8 mg/L
Cumulative Benzonatate Released (295 sec): 6.587 mg
Benzonatate Conc. In Effluent (300 sec): 61.6 mg/L
Cumulative Benzonatate Released (300 sec): 6.615 mg
Structure (SMILES): CCCCNc1ccc(C(=O)OCCOCCOCCOCCOCCOCCOCCOCCOCCOC)cc1 [BENZ, benzonatate]
